pEC50: −log10 of the molar value.
Biological target: T1, IP receptor (Homo sapiens, UniProt P43119)
T1 construct: expressed in transfected cells; host or cells: CHO cells stably expressing the IP receptor (CHO-IP)
Test: cAMP accumulation in CHO cells stably expressing the IP receptor (CHO-IP), Perkin Elmer AlphaScreen assay
Format: cell-based
Conditions: agonist activity, 1 hour at room temperature
Method: Activity of compounds at the IP receptor (IP receptor) is assessed by measuring cAMP accumulation in CHO cells stably expressing the IP receptor (CHO-IP) using the Perkin Elmer AlphaScreen assay. This technology measures the endogenous production of cAMP, in a non-radioactive luminescence proximity homogenous assay. A biological reaction occurs between streptavidin coated donor beads, biotinylated cAMP and anti-cAMP acceptor beads, bringing the donor and acceptor beads close enough together so that upon excitation a fluorescence signal is produced. On production of endogenous cAMP, competition between the biotinylated cAMP and cellular-derived cAMP causes a reduction in the fluorescent signal. The reduction in signal is proportional to the amount of cAMP being produced, thus it is possible to quantify the amount of cAMP being produced on stimulation with agonist.
Test and reference compounds are prepared at 100× [final] in 100% DMSO, and diluted 1:3 using a Biomek Fx (Beckman Coulter). This is followed by an intermediate dilution to give 5× [final] in assay buffer (HBSS containing 5 mM HEPES, 0.1% (w/v) BSA). 5 μL of 5× [final] test compounds, reference compounds and buffer/DMSO control are then transferred to a 384-well white OptiPlate, containing 20 μL CHO-IP cell suspension (15,000 cells/well, prepared from frozen), and plate is incubated at room temperature for 1 hour. A cAMP standard curve is constructed for each experiment (concentration range of 10000 nM to 0.001 nM, in assay buffer) and 25 μL of each concentration added to the last two columns of the assay plate. The incubation is terminated by the addition of lysis buffer (dH2O; 0.3% (v v^−1) Tween-20) containing 20 units mL^−1 streptavidin coated donor beads and biotinylated cAMP (pre-incubated for 30 minutes) and 20 units mL^−1 anti-cAMP acceptor beads, which are added to the lysis buffer just before addition to the assay plate. The assay plate is then incubated at room temperature in the dark, for 60 minutes with gentle shaking, and read on the Envision plate reader (Perkin Elmer).
The raw data of the reference compounds, test compounds and controls are converted into cAMP concentrations, using the cAMP standard curve, in Graph Pad Prism (Graph Pad Software Inc). EC50 as well as maximal values of the agonist curves are determined using a 4-parameter logistic equation. The % maximum response values of all test compounds are determined using the top of the treprostinil concentration-response curve.

T1 sequence (P43119 whole entry): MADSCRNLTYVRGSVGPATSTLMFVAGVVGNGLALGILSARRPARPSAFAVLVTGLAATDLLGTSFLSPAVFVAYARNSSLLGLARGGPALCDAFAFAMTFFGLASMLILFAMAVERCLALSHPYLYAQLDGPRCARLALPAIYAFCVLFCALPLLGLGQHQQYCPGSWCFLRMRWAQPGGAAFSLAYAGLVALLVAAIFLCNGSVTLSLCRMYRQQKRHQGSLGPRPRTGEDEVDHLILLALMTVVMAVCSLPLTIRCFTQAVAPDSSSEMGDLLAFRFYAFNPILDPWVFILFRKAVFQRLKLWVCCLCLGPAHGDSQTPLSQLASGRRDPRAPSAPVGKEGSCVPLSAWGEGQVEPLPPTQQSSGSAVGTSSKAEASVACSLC

Structure (SMILES): COC1CCN(CCCCCCC(=O)O)c2nc(-c3ccc(C)cc3)c(-c3ccc(C)cc3)nc21 (racemic) [Example 3.1, rac-7-(8-Methoxy-2,3-di-p-tolyl-7,8-dihydropyrido[2,3-b]pyrazin-5(6H)-yl)heptanoic acid]
- pEC50: 9.10

Structure (SMILES): COC1(C)CCN(CCCCCCC(=O)O)c2nc(-c3ccc(C)cc3)c(-c3ccc(C)cc3)nc21 (racemic) [Example 15, rac-7-(8-Methoxy-8-methyl-2,3-di-p-tolyl-7,8-dihydropyrido[2,3-b]pyrazin-5(6H)-yl)heptanoic acid]
- pEC50: 9.52

Structure (SMILES): Cc1ccc(-c2nc3c(nc2-c2ccc(C)cc2)N(CCCCC(O)CC(=O)O)CCC3)cc1 (racemic) [Example 17, rac-7-(2,3-Di-p-tolyl-7,8-dihydropyrido[2,3-b]pyrazin-5(6H)-yl)-3-hydroxyheptanoic acid]
- pEC50: 8.74

Structure (SMILES): Cc1ccc(-c2nc3c(nc2-c2ccc(C)cc2)N(CCCCCCC(=O)O)C(=O)C(C(C)(C)O)C3)cc1 (single isomer, unassigned) [1.1(i), (R)-7-(7-(2-hydroxypropan-2-yl)-6-oxo-2,3-di-p-tolyl-7,8-dihydropyrido[2,3-b]pyrazin-5(6H)-yl)heptanoic acid or (S)-7-(7-(2-hydroxypropan-2-yl)-6-oxo-2,3-di-p-tolyl-7,8-dihydropyrido[2,3-b]pyrazin-5(6H)-yl)heptanoic acid]
- pEC50: 9.52

Structure (SMILES): Cc1ccc(-c2nc3c(nc2-c2ccc(C)cc2)N(CCCCCCC(=O)O)C(=O)C(C(C)(C)O)C3)cc1 (single isomer, unassigned) [1.1(ii), (R)-7-(7-(2-hydroxypropan-2-yl)-6-oxo-2,3-di-p-tolyl-7,8-dihydropyrido[2,3-b]pyrazin-5(6H)-yl)heptanoic acid or (S)-7-(7-(2-hydroxypropan-2-yl)-6-oxo-2,3-di-p-tolyl-7,8-dihydropyrido[2,3-b]pyrazin-5(6H)-yl)heptanoic acid]
- pEC50: 9.22

Structure (SMILES): CCC1CCc2nc(-c3ccc(C)cc3)c(-c3ccc(C)cc3)nc2N1CCCCCCC(=O)O (single isomer, unassigned) [2.3(i), (R)-7-(6-Ethyl-2,3-di-p-tolyl-7,8-dihydropyrido[2,3-b]pyrazin-5(6H)-yl)heptanoic acid or (S)-7-(6-Ethyl-2,3-di-p-tolyl-7,8-dihydropyrido[2,3-b]pyrazin-5(6H)-yl)heptanoic acid]
- pEC50: 8.32

Structure (SMILES): CCC1CCc2nc(-c3ccc(C)cc3)c(-c3ccc(C)cc3)nc2N1CCCCCCC(=O)O (single isomer, unassigned) [2.3(ii), (R)-7-(6-Ethyl-2,3-di-p-tolyl-7,8-dihydropyrido[2,3-b]pyrazin-5(6H)-yl)heptanoic acid or (S)-7-(6-Ethyl-2,3-di-p-tolyl-7,8-dihydropyrido[2,3-b]pyrazin-5(6H)-yl)heptanoic acid]
- pEC50: 9.52

Structure (SMILES): Cc1ccc(-c2nc3c(nc2-c2ccc(C)cc2)N(CCCCCCC(=O)O)CC(C(C)(C)O)C3)cc1 (single isomer, unassigned) [9.2(i), (R)-7-(7-(2-hydroxypropan-2-yl)-2,3-di-p-tolyl-7,8-dihydropyrido[2,3-b]pyrazin-5(6H)-yl)heptanoic acid or (S)-7-(7-(2-hydroxypropan-2-yl)-2,3-di-p-tolyl-7,8-dihydropyrido[2,3-b]pyrazin-5(6H)-yl)heptanoic acid]
- pEC50: 7.90

Structure (SMILES): Cc1ccc(-c2nc3c(nc2-c2ccc(C)cc2)N(CCCCCCC(=O)O)C(=O)C(O)C3)cc1 (single isomer, unassigned) [11(i), (R)-7-(7-hydroxy-6-oxo-2,3-di-p-tolyl-7,8-dihydropyrido[2,3-b]pyrazin-5(6H)-yl) heptanoic acid or (S)-7-(7-hydroxy-6-oxo-2,3-di-p-tolyl-7,8-dihydropyrido[2,3-b]pyrazin-5(6H)-yl) heptanoic acid]
- pEC50: 9.52

Structure (SMILES): Cc1ccc(-c2nc3c(nc2-c2ccc(C)cc2)N(CCCCCCC(=O)O)C(=O)C(O)C3)cc1 (single isomer, unassigned) [11(ii), (R)-7-(7-hydroxy-6-oxo-2,3-di-p-tolyl-7,8-dihydropyrido[2,3-b]pyrazin-5(6H)-yl) heptanoic acid or (S)-7-(7-hydroxy-6-oxo-2,3-di-p-tolyl-7,8-dihydropyrido[2,3-b]pyrazin-5(6H)-yl) heptanoic acid]
- pEC50: 9.30

Structure (SMILES): Cc1ccc(-c2nc3c(nc2-c2ccc(C)cc2)N(CCCCCCC(=O)O)C(=O)C(C(C)(C)O)C3)cc1 (single isomer, unassigned) [Example 1.1, rac-7-(7-(2-Hydroxypropan-2-yl)-6-oxo-2,3-di-p-tolyl-7,8-dihydropyrido[2,3-b]pyrazin-5(6H)-yl)heptanoic acid]
- pEC50: 9.52

Structure (SMILES): CO[C@@H]1CCN(CCCCCCC(=O)O)c2nc(-c3ccc(C)cc3)c(-c3ccc(C)cc3)nc21 (single isomer, unassigned) [Example 3.2, (R)-7-(8-methoxy-2,3-di-p-tolyl-7,8-dihydropyrido[2,3-b]pyrazin-5(6H)-yl)heptanoic acid or (S)-7-(8-methoxy-2,3-di-p-tolyl-7,8-dihydropyrido[2,3-b]pyrazin-5(6H)-yl)heptanoic acid]
- pEC50: 7.87

Structure (SMILES): CO[C@@H]1CCN(CCCCCCC(=O)O)c2nc(-c3ccc(C)cc3)c(-c3ccc(C)cc3)nc21 (single isomer, unassigned) [Example 3.3, (R)-7-(8-methoxy-2,3-di-p-tolyl-7,8-dihydropyrido[2,3-b]pyrazin-5(6H)-yl)heptanoic acid or (S)-7-(8-methoxy-2,3-di-p-tolyl-7,8-dihydropyrido[2,3-b]pyrazin-5(6H)-yl)heptanoic acid]
- pEC50: 8.64

Structure (SMILES): Cc1ccc(-c2nc3c(nc2-c2ccc(C)cc2)N(CCCCCCC(=O)NS(C)(=O)=O)CCC3O)cc1 (single isomer, unassigned) [Example 13.1, (R or S)-7-(8-Hydroxy-2,3-di-p-tolyl-7,8-dihydropyrido[3,2-b]pyrazin-5(6H)-yl)-N-(methylsulfonyl)heptanamide]
- pEC50: 7.54

Structure (SMILES): Cc1ccc(-c2nc3c(nc2-c2ccc(C)cc2)N(CCCCCCC(=O)NS(=O)(=O)Cc2ccccc2)CCC3O)cc1 (single isomer, unassigned) [Example 13.2, (R)—N-(benzylsulfonyl)-7-(8-hydroxy-2,3-di-p-tolyl-7,8-dihydropyrido[3,2-b]pyrazin-5(6H)-yl)heptanamide or (S)—N-(benzylsulfonyl)-7-(8-hydroxy-2,3-di-p-tolyl-7,8-dihydropyrido[3,2-b]pyrazin-5(6H)-yl)heptanamide]
- pEC50: 6.29

Structure (SMILES): Cc1ccc(-c2nc3c(nc2-c2ccc(C)cc2)N(CCCCCCC(=O)NS(=O)(=O)Cc2ccccc2)CCC3O)cc1 (single isomer, unassigned) [Example 13.3, (R)—N-(benzylsulfonyl)-7-(8-hydroxy-2,3-di-p-tolyl-7,8-dihydropyrido[3,2-b]pyrazin-5(6H)-yl)heptanamide or (S)—N-(benzylsulfonyl)-7-(8-hydroxy-2,3-di-p-tolyl-7,8-dihydropyrido[3,2-b]pyrazin-5(6H)-yl)heptanamide]
- pEC50: 7.18

Structure (SMILES): COC1(C)CCN(CCCCCCC(=O)O)c2nc(-c3ccc(C)cc3)c(-c3ccc(C)cc3)nc21 (single isomer, unassigned) [Example 15a, (R)-7-(8-Methoxy-8-methyl-2,3-di-p-tolyl-7,8-dihydropyrido[2,3-b]pyrazin-5(6H)-yl)heptanoic acid or (S)-7-(8-Methoxy-8-methyl-2,3-di-p-tolyl-7,8-dihydropyrido[2,3-b]pyrazin-5(6H)-yl)heptanoic acid]
- pEC50: 8.96

Reference: US9115129B2, “Substituted pyrido[2,3-B]pyrazines as IP receptor agonists” (Novartis AG, priority 2012, dated 2015)
